According to ChEMBL document CHEMBL3877252, “Fluorescein hydrazones: A series of novel non-intercalative topoisomerase IIα catalytic inhibitors induce G1 arrest and apoptosis in breast and colon cancer cells” (Eur J Med Chem, 2017):
Active and inactive are the calls of the source. The calls are words filed in the database; no cut-off is given here.

Tests used:
[1] = target: DNA topoisomerase 2-alpha (Homo sapiens) (UniProt P11388); assay: Poison activity at topoisomerase-2 alpha in human HCT15 cells assessed as DNA damage by measuring DNA tail length at 10 uM measured after 24 hrs by alkaline comet assay; type: cell-based; conditions: HCT-15
[2] = Antiproliferative activity against human HCT15 cells measured after 72 hrs by CCK8 assay; type: functional, cell-based; conditions: HCT-15, 72 h
[3] = Cell cycle arrest in human T47D cells assessed as accumulation at G2/M phase at 0.5 uM after 24 hrs by DAPI staining-based cell analyzer (reference value: 13%); type: functional
[4] = target: DNA topoisomerase 2-alpha (Homo sapiens) (UniProt P11388); assay: Poison activity at topoisomerase-2 alpha in human T47D cells assessed as DNA damage by measuring DNA tail length at 5 uM measured after 24 hrs by alkaline comet assay; type: cell-based
[5] = Cell cycle arrest in human T47D cells assessed as accumulation at S phase at 1 uM after 24 hrs by DAPI staining-based cell analyzer (reference value: 26%); type: functional
[6] = Cell cycle arrest in human T47D cells assessed as accumulation at G1 phase at 0.5 uM after 24 hrs by DAPI staining-based cell analyzer (reference value: 51%); type: functional
[7] = Cell cycle arrest in human HCT15 cells assessed as accumulation at S phase at 0.5 uM after 20 hrs by DAPI staining-based cell analyzer (reference value: 34%); type: functional; conditions: HCT-15
[8] = Cell cycle arrest in human HCT15 cells assessed as accumulation at S phase at 1 uM after 20 hrs by DAPI staining-based cell analyzer (reference value: 34%); type: functional; conditions: HCT-15
[9] = target: DNA topoisomerase 2-alpha (Homo sapiens) (UniProt P11388); assay: Poison activity at topoisomerase-2 alpha in human HCT15 cells assessed as DNA damage by measuring DNA tail length at 5 uM measured after 24 hrs by alkaline comet assay; type: cell-based; conditions: HCT-15
[10] = Cell cycle arrest in human HCT15 cells assessed as accumulation at G2/M phase after 20 hrs by DAPI staining-based cell analyzer; type: functional; conditions: HCT-15
[11] = Cell cycle arrest in human HCT15 cells assessed as accumulation at G1 phase at 0.5 uM after 20 hrs by DAPI staining-based cell analyzer (reference value: 40%); type: functional; conditions: HCT-15
[12] = Cell cycle arrest in human HCT15 cells assessed as accumulation at G2/M phase at 1 uM after 20 hrs by DAPI staining-based cell analyzer (reference value: 13%); type: functional; conditions: HCT-15
[13] = target: DNA topoisomerase 2-alpha (Homo sapiens) (UniProt P11388); assay: Poison activity at topoisomerase-2 alpha in human T47D cells assessed as DNA damage by measuring DNA tail length at 10 uM measured after 24 hrs by alkaline comet assay; type: cell-based
[14] = Cell cycle arrest in human T47D cells assessed as accumulation at S phase at 0.5 uM after 24 hrs by DAPI staining-based cell analyzer (reference value: 26%); type: functional
[15] = Cell cycle arrest in human T47D cells assessed as accumulation at G1 phase at 1 uM after 24 hrs by DAPI staining-based cell analyzer (reference value: 51%); type: functional
[16] = Antiproliferative activity against human DU145 cells measured after 72 hrs by CCK8 assay; type: functional, cell-based; conditions: DU-145, 72 h
[17] = Cell cycle arrest in human T47D cells assessed as accumulation at G2/M phase after 24 hrs by DAPI staining-based cell analyzer; type: functional
[18] = Antiproliferative activity against human MCF7 cells measured after 72 hrs by CCK8 assay; type: functional, cell-based; conditions: MCF7, 72 h
[19] = Cell cycle arrest in human HCT15 cells assessed as accumulation at G2/M phase at 0.5 uM after 20 hrs by DAPI staining-based cell analyzer (reference value: 13%); type: functional; conditions: HCT-15
[20] = Cell cycle arrest in human T47D cells assessed as accumulation at G2/M phase at 1 uM after 24 hrs by DAPI staining-based cell analyzer (reference value: 15%); type: functional
[21] = Cell cycle arrest in human HCT15 cells assessed as accumulation at G1 phase at 1 uM after 20 hrs by DAPI staining-based cell analyzer (reference value: 40%); type: functional; conditions: HCT-15
[22] = Antiproliferative activity against human T47D cells measured after 72 hrs by CCK8 assay; type: functional, cell-based
[23] = test system: HCT-15; assay: Induction of apoptosis in human HCT15 cells assessed as decrease in bcl-2 level measured after 24 hrs by Western blot analysis; type: functional, cell-based
[24] = Cell cycle arrest in human HCT15 cells assessed as accumulation at G1 phase at 10 uM after 20 hrs by DAPI staining-based cell analyzer (reference value: 61%); type: functional; conditions: HCT-15
[25] = target: DNA topoisomerase 2-alpha (Homo sapiens) (UniProt P11388); assay: Inhibition of human topoisomerase-2 alpha assessed as inhibition of relaxation of supercoiled pBR322 plasmid DNA at 100 uM measured after 1 hr by ethidium bromide staining based agarose gel electrophoresis relative to control
[26] = Cell cycle arrest in human HCT15 cells assessed as accumulation at S phase at 10 uM after 10 hrs by DAPI staining-based cell analyzer (reference value: 10%); type: functional; conditions: HCT-15
[27] = Cell cycle arrest in human HCT15 cells assessed as accumulation at G2/M phase at 10 uM after 5 hrs by DAPI staining-based cell analyzer (reference value: 13%); type: functional; conditions: HCT-15
[28] = Cell cycle arrest in human HCT15 cells assessed as accumulation at S phase at 10 uM after 15 hrs by DAPI staining-based cell analyzer (reference value: 10%); type: functional; conditions: HCT-15
[29] = target: T1, DNA topoisomerase 1 (Homo sapiens) (UniProt P11387); assay: Inhibition of human topoisomerase-1 assessed as inhibition of relaxation of supercoiled pBR322 plasmid DNA at 20 uM measured after 1 hr by ethidium bromide staining based agarose gel electrophoresis relative to control
T1 sequence (whole entry): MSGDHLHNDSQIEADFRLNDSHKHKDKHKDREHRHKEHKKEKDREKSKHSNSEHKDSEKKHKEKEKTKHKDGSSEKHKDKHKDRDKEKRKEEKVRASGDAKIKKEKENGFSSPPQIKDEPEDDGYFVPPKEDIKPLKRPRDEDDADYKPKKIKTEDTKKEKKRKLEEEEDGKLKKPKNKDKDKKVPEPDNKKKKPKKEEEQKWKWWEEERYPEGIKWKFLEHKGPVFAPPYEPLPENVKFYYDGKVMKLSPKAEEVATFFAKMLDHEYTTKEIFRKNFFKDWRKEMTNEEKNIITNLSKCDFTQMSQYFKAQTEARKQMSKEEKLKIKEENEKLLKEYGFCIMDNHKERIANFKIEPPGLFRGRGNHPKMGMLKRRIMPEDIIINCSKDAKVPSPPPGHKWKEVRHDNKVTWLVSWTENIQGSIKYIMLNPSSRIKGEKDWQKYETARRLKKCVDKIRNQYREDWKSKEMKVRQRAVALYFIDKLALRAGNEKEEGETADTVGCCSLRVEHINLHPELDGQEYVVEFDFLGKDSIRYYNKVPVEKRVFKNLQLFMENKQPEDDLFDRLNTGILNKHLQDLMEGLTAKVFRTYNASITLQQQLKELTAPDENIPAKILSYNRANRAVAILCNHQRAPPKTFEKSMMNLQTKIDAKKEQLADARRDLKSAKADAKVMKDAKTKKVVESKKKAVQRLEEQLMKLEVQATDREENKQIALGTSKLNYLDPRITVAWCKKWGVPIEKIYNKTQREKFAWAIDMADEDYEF

[30] = Cell cycle arrest in human HCT15 cells assessed as accumulation at S phase at 10 uM after 20 hrs by DAPI staining-based cell analyzer (reference value: 10%); type: functional; conditions: HCT-15
[31] = target: DNA topoisomerase 2-alpha (Homo sapiens) (UniProt P11388); assay: Inhibition of human topoisomerase-2 alpha assessed as inhibition of relaxation of supercoiled pBR322 plasmid DNA at 20 uM measured after 1 hr by ethidium bromide staining based agarose gel electrophoresis relative to control
[32] = Cell cycle arrest in human HCT15 cells assessed as decrease in cyclin D1 level measured after 20 hrs; type: functional, cell-based; conditions: HCT-15
[33] = Cell cycle arrest in human HCT15 cells assessed as accumulation at G2/M phase at 10 uM after 10 hrs by DAPI staining-based cell analyzer (reference value: 13%); type: functional; conditions: HCT-15
[34] = Cell cycle arrest in human HCT15 cells assessed as increase in p27kip1 level at 10 uM; type: functional, cell-based; conditions: HCT-15, TDE = time-dependent effect
[35] = Cell cycle arrest in human HCT15 cells assessed as accumulation at S phase at 10 uM after 20 hrs by DAPI staining-based cell analyzer (reference value: 34%); type: functional; conditions: HCT-15
[36] = Cell cycle arrest in human HCT15 cells assessed as accumulation at G1 phase at 10 uM after 20 hrs by DAPI staining-based cell analyzer (reference value: 40%); type: functional; conditions: HCT-15
[37] = test system: HCT-15; assay: Induction of apoptosis in human HCT15 cells assessed as increase in bax level measured after 24 hrs by Western blot analysis; type: functional, cell-based
[38] = Cell cycle arrest in human HCT15 cells assessed as accumulation at G2/M phase at 10 uM after 15 hrs by DAPI staining-based cell analyzer (reference value: 13%); type: functional; conditions: HCT-15
[39] = Cell cycle arrest in human HCT15 cells assessed as accumulation at G1 phase at 3 uM after 20 hrs by DAPI staining-based cell analyzer (reference value: 40%); type: functional; conditions: HCT-15
[40] = Cell cycle arrest in human HCT15 cells assessed as accumulation at G1 phase at 10 uM after 5 hrs by DAPI staining-based cell analyzer (reference value: 61%); type: functional; conditions: HCT-15
[41] = Cell cycle arrest in human HCT15 cells assessed as accumulation at S phase at 10 uM after 5 hrs by DAPI staining-based cell analyzer (reference value: 10%); type: functional; conditions: HCT-15
[42] = Cell cycle arrest in human HCT15 cells assessed as accumulation at S phase at 3 uM after 20 hrs by DAPI staining-based cell analyzer (reference value: 34%); type: functional; conditions: HCT-15
[43] = test system: HCT-15; assay: Induction of apoptosis in human HCT15 cells assessed as increase in cleaved PARP level measured after 24 hrs by Western blot analysis; type: functional, cell-based
[44] = Cell cycle arrest in human HCT15 cells assessed as increase in p27kip1 level measured after 20 hrs; type: functional, cell-based; conditions: HCT-15
[45] = Cell cycle arrest in human HCT15 cells assessed as accumulation at G1 phase at 10 uM after 10 hrs by DAPI staining-based cell analyzer (reference value: 61%); type: functional; conditions: HCT-15
[46] = Cell cycle arrest in human HCT15 cells assessed as accumulation at G1 phase at 10 uM by DAPI staining based cell analyzer; type: functional; conditions: HCT-15, TDE = time-dependent effect
[47] = Cell cycle arrest in human HCT15 cells assessed as accumulation at G1 phase at 10 uM after 15 hrs by DAPI staining-based cell analyzer (reference value: 61%); type: functional; conditions: HCT-15
[48] = target: T1, DNA topoisomerase 1 (Homo sapiens); assay: Inhibition of human topoisomerase-1 assessed as inhibition of relaxation of supercoiled pBR322 plasmid DNA at 100 uM measured after 1 hr by ethidium bromide staining based agarose gel electrophoresis relative to control
[49] = Cell cycle arrest in human HCT15 cells assessed as accumulation at G2/M phase at 10 uM after 20 hrs by DAPI staining-based cell analyzer (reference value: 13%); type: functional; conditions: HCT-15
[50] = target: DNA topoisomerase 2-alpha (Homo sapiens) (UniProt P11388); assay: Inhibition of topoisomerase-2 alpha catalytic activity in human HCT15 cells assessed as appearance of free protein band at 50 uM measured after 2 hrs by Western blot analysis; type: cell-based; conditions: HCT-15
[51] = Cell cycle arrest in human HCT15 cells assessed as decrease in cyclin D1 level at 10 uM; type: functional, cell-based; conditions: HCT-15, TDE = time-dependent effect
[52] = Cell cycle arrest in human HCT15 cells assessed as accumulation at G2/M phase at 3 uM after 20 hrs by DAPI staining-based cell analyzer (reference value: 13%); type: functional; conditions: HCT-15

DNA topoisomerase 2-alpha (Homo sapiens), sequence (P11388 whole entry): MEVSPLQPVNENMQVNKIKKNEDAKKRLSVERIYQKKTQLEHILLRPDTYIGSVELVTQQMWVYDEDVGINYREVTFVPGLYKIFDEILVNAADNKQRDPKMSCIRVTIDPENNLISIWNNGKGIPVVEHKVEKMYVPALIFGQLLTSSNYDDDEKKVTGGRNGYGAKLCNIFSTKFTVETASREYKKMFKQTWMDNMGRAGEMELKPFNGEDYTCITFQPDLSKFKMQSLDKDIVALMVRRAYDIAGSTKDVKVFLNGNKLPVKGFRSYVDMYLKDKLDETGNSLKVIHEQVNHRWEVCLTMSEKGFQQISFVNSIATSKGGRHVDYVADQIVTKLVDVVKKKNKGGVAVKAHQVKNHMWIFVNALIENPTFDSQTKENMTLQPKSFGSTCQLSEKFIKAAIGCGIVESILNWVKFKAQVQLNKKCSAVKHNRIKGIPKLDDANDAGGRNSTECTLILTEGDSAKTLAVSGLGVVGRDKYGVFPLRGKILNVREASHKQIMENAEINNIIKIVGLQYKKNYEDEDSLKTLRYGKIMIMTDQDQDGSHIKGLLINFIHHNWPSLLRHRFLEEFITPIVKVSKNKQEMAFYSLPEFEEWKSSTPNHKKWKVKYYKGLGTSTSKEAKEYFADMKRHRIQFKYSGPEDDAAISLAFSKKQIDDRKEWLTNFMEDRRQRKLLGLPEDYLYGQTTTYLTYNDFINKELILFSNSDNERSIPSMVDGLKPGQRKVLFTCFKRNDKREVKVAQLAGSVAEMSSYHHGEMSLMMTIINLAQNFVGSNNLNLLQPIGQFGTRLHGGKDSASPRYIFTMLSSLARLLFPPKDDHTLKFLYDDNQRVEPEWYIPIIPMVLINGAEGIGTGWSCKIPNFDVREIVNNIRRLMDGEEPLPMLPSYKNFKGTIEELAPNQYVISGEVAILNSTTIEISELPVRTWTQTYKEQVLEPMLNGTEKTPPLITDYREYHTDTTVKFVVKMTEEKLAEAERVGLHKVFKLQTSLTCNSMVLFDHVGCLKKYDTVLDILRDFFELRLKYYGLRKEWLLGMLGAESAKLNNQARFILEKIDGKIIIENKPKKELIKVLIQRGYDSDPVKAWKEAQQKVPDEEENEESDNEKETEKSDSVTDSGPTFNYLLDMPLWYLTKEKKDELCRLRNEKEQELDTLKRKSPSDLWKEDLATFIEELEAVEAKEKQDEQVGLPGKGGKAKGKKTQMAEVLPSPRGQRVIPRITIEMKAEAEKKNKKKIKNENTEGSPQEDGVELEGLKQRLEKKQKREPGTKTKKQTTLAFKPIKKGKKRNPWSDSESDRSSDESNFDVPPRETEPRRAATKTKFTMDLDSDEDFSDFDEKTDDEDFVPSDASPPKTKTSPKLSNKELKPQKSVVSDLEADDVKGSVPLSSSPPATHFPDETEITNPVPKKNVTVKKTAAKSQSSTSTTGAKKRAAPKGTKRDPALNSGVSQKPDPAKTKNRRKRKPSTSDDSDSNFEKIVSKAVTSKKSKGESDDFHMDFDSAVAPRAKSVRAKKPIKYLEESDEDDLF

Compound: COc1cc([C@@H]2c3cc4c(cc3[C@@H](O[C@@H]3O[C@@H]5CO[C@@H](C)O[C@H]5[C@H](O)[C@H]3O)[C@H]3COC(=O)[C@H]23)OCO4)cc(OC)c1O [ETOPOSIDE]
- Activity [1]: 46.3 pixel
- IC50 [2]: 1270 nM
- Activity [3]: 31%
- Activity [4]: 62.7 pixel
- Activity [5]: 22%
- Activity [6]: 39%
- Activity [7]: 26%
- Activity [8]: 25%
- Activity [9]: 37.5 pixel
- Activity [10]: Dose-dependent effect
- Activity [11]: 21%
- Activity [12]: 32%
- Activity [13]: 66.2 pixel
- Activity [14]: 24%
- Activity [15]: 35%
- IC50 [16]: 2190 nM
- Activity [17]: Dose-dependent effect
- IC50 [18]: 35600 nM
- Activity [19]: 29%
- Activity [20]: 33%
- Activity [21]: 17%
- IC50 [22]: 4850 nM

Compound: CCOc1ccc2c(c1)Oc1cc(O)ccc1C21c2ccccc2C(=O)N1/N=C/c1ccccc1[N+](=O)[O-] (stereo unspecified)
- Activity [23]: Dose-dependent effect
- Activity [1]: 8.29 pixel
- Activity [24]: 70%
- inhibition [25]: 62.4%
- IC50 [2]: 2400 nM
- Activity [26]: 8%
- Activity [27]: 11%
- Activity [28]: 8%
- inhibition [29]: 14.8%
- Activity [30]: 7%
- inhibition [31]: 52.7%
- Activity [32]: Dose-dependent effect
- Activity [33]: 12%
- Activity [8]: 28%
- Activity [34]: Tde
- Activity [35]: 20%
- Activity [9]: 7.72 pixel
- Activity [36]: 55%
- Activity [12]: 14%
- Activity [37]: Dose-dependent effect
- Activity [38]: 11%
- Activity [39]: 48%
- Activity [40]: 64%
- Activity [41]: 8%
- Activity [42]: 24%
- IC50 [16]: 1430 nM
- Activity [43]: Dose-dependent effect
- IC50 [18]: 11400 nM
- Activity [44]: Dose-dependent effect
- Activity [45]: 67%
- Activity [46]: Tde
- Activity [21]: 45%
- Activity [47]: 68%
- inhibition [48]: 35.6%
- Activity [49]: 11 to 12%
- IC50 [22]: > 50000 nM
- inhibition [50]: Active
- Activity [51]: Tde
- Activity [52]: 11%
